From publication PMC6406907, “A H2AX–CARP-1 Interaction Regulates Apoptosis Signaling Following DNA Damage” (Cancers, 2019)
No end group written: not given here. HA = not defined here

Assays:
γH2AX = assay: Confocal immunofluorescence of γH2AX, HeLa; format: cell-based, human; conditions: HeLa expressing EGFP-H2AX (1–35) vs EGFP, Adriamycin-treated
Description: (§1) Cells were plated onto chamber slides one day before treatment. Following treatment of cells with respective compounds, the adherent cells were fixed with 5% formaldehyde for 10 min and then washed with phosphate buffered saline (PBS). Samples were blocked (0.5% NP-40, 5% milk powder, 1% fetal bovine serum) for 30 min. After a single wash with PBS, cells were incubated with primary antibodies for 45 to 60 min. Coverslips were washed with PBS and then incubated with secondary antibodies for another 45 to 60 min. They were then washed with PBS and mounted with 0.1 μg/mL 4′,6′-diamidino-2-phenylindole (DAPI) containing mounting solution. […]
Our next objective was to analyze the biological significance of the CARP-1–H2AX interaction in cells. […] Next, we measured activation of caspases as an apoptosis readout in cells expressing myc-His-tagged wild-type CARP-1 or CARP-1 (Δ600–650) proteins that were either untreated or treated with Adriamycin or CFM compounds as detailed in Section 2. We utilized a lower, 4–5 μM dose of Adriamycin or CFM compounds because a 10 μM Adriamycin dose caused interference in signal output/readout in this particular assay, likely due to background fluorescence that is emitted by higher dose of Adriamycin. […]

HeLa cells = assay: Transduction/localization of TAT-tagged proteins, HeLa; format: cell-based, human; conditions: 300 μg/mL, confocal
Description: as §1
We further tested whether and the extent to which transient and ectopic expression of CARP-1 (636–650) peptide would also interfere with the cell-growth inhibition by Adriamycin. […] The wild-type MDA-MB-468 or HeLa cells were pre-incubated with His-TAT-HA-EGFP or His-TAT-HA-CARP-1 (636–650) proteins, and presence of GFP and CARP-1 (636–650) was determined by immuno-cytochemical staining followed by photography using a confocal microscope as above. […]
Figure S9. […] Multiple cells from each of the confocal images in the γH2AX column of Figure 8C were subjected to quantitation for levels of γH2AX. The quantitation of the images of stained cells was carried out by using ImageJ software (imagej.nih.gov/ij/plugins/track/jacop2). […]

| Substance | nuclear presence of γH2AX (γH2AX) | cellular localization after transduction (HeLa cells) |
| --- | --- | --- |
| EGFP-H2AX (1–35): EGFP-tagged fusion protein stably expressed in MDA-MB-468 and HeLa sublines (MSGRGKTGGKARAKAKSRSSRAGLQFPVGRVHRLL; also: EGFP fusion, end not given here; UniProt P16104 1-35, looked up, fragment) | increased nuclear presence of γH2AX |  |
| His-TAT-HA-CARP-1 (636–650): His-TAT-HA-tagged CARP-1 (636–650) peptide, >95% purity, commercially synthesized ({His-TAT-HA}-PKTMKVNDLRKELES; reading uncertain; UniProt Q8IX12 636-650, looked up, fragment) |  | predominantly present in the cytoplasmic region |
